Reference: patent US11684614B2, “Formulations of hydroxypyridonate actinide/lanthanide decorporation agents” (priority 2017, dated 2023)

Test: Repeated-treatment efficacy for removing an intravenous dose of 238Pu (excretion, tissue retention, clinical observations), female and male arms
Assay type: in vivo, Swiss-Webster mice
Conditions: female mice; for ^238Pu percent increase in excretion, Total Excretion / ^238Pu percent increase in excretion, Total Feces / ^238Pu percent increase in excretion, Total Urine: over untreated control group; for ^238Pu percent tissue reduction, GI Tract / ^238Pu percent tissue reduction, Kidney / ^238Pu percent tissue reduction, Liver / ^238Pu percent tissue reduction, Soft Tissue / ^238Pu percent tissue reduction, Total Body / ^238Pu percent tissue reduction, Total Bone: vs untreated control group
Description: The objective of this study was to characterize the efficacy of 3,4,3-L1(1,2-HOPO) at enhancing elimination from an internal plutonium burden in female and male Swiss-Webster mice administered a soluble citrate complex of ^238Pu and treated multiple times, starting at 24 hours after the exposure. Efficacy was evaluated by comparing the tissue contents, urinary and fecal excretions of ^238Pu in treated animals versus untreated animals.
The medical countermeasure 3,4,3-L1(1,2-HOPO) was administered parenterally (ip) or orally (po) via consecutive injections or gavages (six daily or twelve twice daily) starting at 24 hours post contamination at the following four selected doses: 30 μmol/kg ip, 150 μmol/kg po, 300 μmol/kg po, and 600 μmol/kg po (equivalent to respective approximate human doses range of […], using the accepted conversion system of mouse doses into human equivalent doses—HED—based on body surface area). Oral doses also included the permeability enhancer selected during formulation development work.
• Challenge isotope: ^238Pu • Challenge dose: 25 nCi (i.e., approximately 0.8 μCi/kg) • Route of contamination: Intravenous (iv) tail-vein • Route of treatment: Intraperitoneal Injection (ip) or Oral (po) • Frequency of treatment: Multiple (once- or twice-daily for 6 days) doses, starting 24 hr postcontamination • Treatment dose calculation: Dose calculations (mg/kg or μmol/kg) for the decorporation agent were based on the individual body weight measured after contamination. • Study Duration: 11 days, in-life
c. […] Test article and control dose formulations were prepared within 1 day of dose administration, by weighing out the appropriate amount of test article, dispersing in vehicle. For ip solutions, the test article was used alone, while for oral suspensions, a mixture of test article and excipient (90:10, w:w) was used. The pH was adjusted to 7.0-7.4 for ip administration and 5.0-5.5 for oral administration with sterile NaOH. Dose formulations were prepared at room temperature and filter-sterilized. • Storage: 2-8° C.; refrigerated; protected from light. • Characterization: The concentration of each test article formulation was verified by high-performance liquid chromatography-mass spectrometry. • Test Article Handling: Test, reference, and control article formulations were handled with the use of eye protection, gloves, and a protective laboratory coat. • Correct Dose Assurance: The test article was weighed with calibrated balances. The administration of each dose formulation was properly documented, and the amount administered to each animal recorded.
e. Experimental Procedures (In-Life Evaluations and Euthanasia) • Contamination: Single administration by intravenous (iv) tail-vein injection (0.2 mL injection volume) under isoflurane anesthesia. Three standard 0.2 mL injections were performed into polyethylene bottles and pre-loaded with aliquots of concentrated nitric acid on each injection day. Six female and six male mice were culled for necropsy 1 hr post-contamination and were used as standards. A11 standards were processed and counted together with the final samples to allow verification of the contamination dose. • Dose Administration: Single administration by intraperitoneal injection (ip) or oral gavage (po) under isoflurane anesthesia. • Mortality/Morbidity: Assessed at least once daily. • Clinical Observations: Recorded once daily (4 hr post-dose on day of treatment), or more often as clinical signs warranted. […]

[1] = 30 μmol/kg, IP, 11-day necropsy
[2] = 150 μmol/kg, 2 doses PO, 7-day necropsy
[3] = 300 μmol/kg, 1 dose PO, 7-day necropsy
[4] = 300 μmol/kg, 1 dose PO, 11-day necropsy
[5] = 300 μmol/kg, 1 doses PO, 7-day necropsy
[6] = 300 μmol/kg, 2 doses PO, 7-day necropsy
[7] = 300 μmol/kg, PO, 11-day necropsy
[8] = 600 μmol/kg, 1 dose PO, 7-day necropsy
[9] = 600 μmol/kg, 1 dose PO, 11-day necropsy
[10] = 600 μmol/kg, PO, 11-day necropsy

O=C(NCCCN(CCCCN(CCCNC(=O)c1cccc(=O)n1O)C(=O)c1cccc(=O)n1O)C(=O)c1cccc(=O)n1O)c1cccc(=O)n1O [Formulation 343]
^238Pu excretion, Total Excretion, Avg [1]: 79.37 percent recovered dose | ^238Pu excretion, Total Feces, Avg [1]: 41.80 percent recovered dose | ^238Pu excretion, Total Urine, Avg [1]: 37.57 percent recovered dose | ^238Pu retention, GI Tract, Avg [1]: 0.59 percent recovered dose | ^238Pu retention, Kidney, Avg [1]: 0.11 percent recovered dose | ^238Pu retention, Liver, Avg [1]: 2.79 percent recovered dose | ^238Pu retention, Soft Tissue, Avg [1]: 1.40 percent recovered dose | ^238Pu retention, Total Body, Avg [1]: 20.63 percent recovered dose | ^238Pu retention, Total Bone, Avg [1]: 15.74 percent recovered dose | ^238Pu percent increase in excretion, Total Excretion [1]: 157.74% | ^238Pu percent increase in excretion, Total Feces [1]: 146.77% | ^238Pu percent increase in excretion, Total Urine [1]: 172.05% | ^238Pu percent tissue reduction, GI Tract [1]: 55.96% | ^238Pu percent tissue reduction, Kidney [1]: 58.43% | ^238Pu percent tissue reduction, Liver [1]: 76.81% | ^238Pu percent tissue reduction, Soft Tissue [1]: 50.90% | ^238Pu percent tissue reduction, Total Body [1]: 58.48% | ^238Pu percent tissue reduction, Total Bone [1]: 52.58% | ^238Pu excretion, Total Excretion, Avg [2]: 62.18 percent recovered dose | ^238Pu excretion, Total Feces, Avg [2]: 33.16 percent recovered dose | ^238Pu excretion, Total Urine, Avg [2]: 29.02 percent recovered dose | ^238Pu retention, GI Tract, Avg [2]: 1.20 percent recovered dose | ^238Pu retention, Kidney, Avg [2]: 0.23 percent recovered dose | ^238Pu retention, Liver, Avg [2]: 12.83 percent recovered dose | ^238Pu retention, Soft Tissue, Avg [2]: 1.64 percent recovered dose | ^238Pu retention, Total Body, Avg [2]: 37.82 percent recovered dose | ^238Pu retention, Total Bone, Avg [2]: 21.92 percent recovered dose | ^238Pu percent increase in excretion, Total Excretion [2]: 129.85% | ^238Pu percent increase in excretion, Total Feces [2]: 146.48% | ^238Pu percent increase in excretion, Total Urine [2]: 114.93% | ^238Pu percent tissue reduction, GI Tract [2]: 35.66% | ^238Pu percent tissue reduction, Kidney [2]: 43.29% | ^238Pu percent tissue reduction, Liver [2]: 31.41% | ^238Pu percent tissue reduction, Soft Tissue [2]: 19.55% | ^238Pu percent tissue reduction, Total Body [2]: 27.43% | ^238Pu percent tissue reduction, Total Bone [2]: 24.67% | ^238Pu excretion, Total Excretion, Avg [3]: 63.26 percent recovered dose | ^238Pu excretion, Total Feces, Avg [3]: 34.34 percent recovered dose | ^238Pu excretion, Total Urine, Avg [3]: 28.92 percent recovered dose | ^238Pu retention, GI Tract, Avg [3]: 1.20 percent recovered dose | ^238Pu retention, Kidney, Avg [3]: 0.26 percent recovered dose | ^238Pu retention, Liver, Avg [3]: 10.22 percent recovered dose | ^238Pu retention, Soft Tissue, Avg [3]: 1.74 percent recovered dose | ^238Pu retention, Total Body, Avg [3]: 36.74 percent recovered dose | ^238Pu retention, Total Bone, Avg [3]: 23.31 percent recovered dose | ^238Pu percent increase in excretion, Total Excretion [3]: 142.38% | ^238Pu percent increase in excretion, Total Feces [3]: 197.06% | ^238Pu percent increase in excretion, Total Urine [3]: 107.09% | ^238Pu retention, GI Tract, Avg [4]: 1.02 percent recovered dose | ^238Pu retention, Kidney, Avg [4]: 0.17 percent recovered dose | ^238Pu retention, Liver, Avg [4]: 6.02 percent recovered dose | ^238Pu retention, Soft Tissue, Avg [4]: 2.06 percent recovered dose | ^238Pu retention, Total Body, Avg [4]: 28.11 percent recovered dose | ^238Pu retention, Total Bone, Avg [4]: 18.85 percent recovered dose | ^238Pu percent tissue reduction, GI Tract [4]: 25.61% | ^238Pu percent tissue reduction, Kidney [4]: 37.82% | ^238Pu percent tissue reduction, Liver [4]: 55.06% | ^238Pu percent tissue reduction, Soft Tissue [4]: 22.98% | ^238Pu percent tissue reduction, Total Body [4]: 42.51% | ^238Pu percent tissue reduction, Total Bone [4]: 39.58% | ^238Pu percent tissue reduction, GI Tract [5]: 11.06% | ^238Pu percent tissue reduction, Kidney [5]: 20.17% | ^238Pu percent tissue reduction, Liver [5]: 38.39% | ^238Pu percent tissue reduction, Soft Tissue [5]: 25.25% | ^238Pu percent tissue reduction, Total Body [5]: 33.88% | ^238Pu percent tissue reduction, Total Bone [5]: 33.33% | ^238Pu excretion, Total Excretion, Avg [6]: 66.57 percent recovered dose | ^238Pu excretion, Total Feces, Avg [6]: 35.68 percent recovered dose | ^238Pu excretion, Total Urine, Avg [6]: 30.90 percent recovered dose | ^238Pu retention, GI Tract, Avg [6]: 1.25 percent recovered dose | ^238Pu retention, Kidney, Avg [6]: 0.18 percent recovered dose | ^238Pu retention, Liver, Avg [6]: 6.85 percent recovered dose | ^238Pu retention, Soft Tissue, Avg [6]: 1.62 percent recovered dose | ^238Pu retention, Total Body, Avg [6]: 33.43 percent recovered dose | ^238Pu retention, Total Bone, Avg [6]: 23.54 percent recovered dose | ^238Pu percent increase in excretion, Total Excretion [6]: 139.02% | ^238Pu percent increase in excretion, Total Feces [6]: 157.58% | ^238Pu percent increase in excretion, Total Urine [6]: 122.37% | ^238Pu percent tissue reduction, GI Tract [6]: 33.06% | ^238Pu percent tissue reduction, Kidney [6]: 56.34% | ^238Pu percent tissue reduction, Liver [6]: 63.39% | ^238Pu percent tissue reduction, Soft Tissue [6]: 20.76% | ^238Pu percent tissue reduction, Total Body [6]: 35.85% | ^238Pu percent tissue reduction, Total Bone [6]: 19.10% | ^238Pu excretion, Total Excretion, Avg [7]: 71.89 percent recovered dose | ^238Pu excretion, Total Feces, Avg [7]: 37.63 percent recovered dose | ^238Pu excretion, Total Urine, Avg [7]: 34.27 percent recovered dose | ^238Pu percent increase in excretion, Total Excretion [7]: 140.66% | ^238Pu percent increase in excretion, Total Feces [7]: 162.86% | ^238Pu percent increase in excretion, Total Urine [7]: 122.35% | ^238Pu excretion, Total Excretion, Avg [8]: 67.37 percent recovered dose | ^238Pu excretion, Total Feces, Avg [8]: 30.80 percent recovered dose | ^238Pu excretion, Total Urine, Avg [8]: 36.57 percent recovered dose | ^238Pu retention, GI Tract, Avg [8]: 1.24 percent recovered dose | ^238Pu retention, Kidney, Avg [8]: 0.23 percent recovered dose | ^238Pu retention, Liver, Avg [8]: 12.48 percent recovered dose | ^238Pu retention, Soft Tissue, Avg [8]: 1.62 percent recovered dose | ^238Pu retention, Total Body, Avg [8]: 32.63 percent recovered dose | ^238Pu retention, Total Bone, Avg [8]: 17.06 percent recovered dose | ^238Pu percent increase in excretion, Total Excretion [8]: 151.63% | ^238Pu percent increase in excretion, Total Feces [8]: 176.75% | ^238Pu percent increase in excretion, Total Urine [8]: 135.42% | ^238Pu percent tissue reduction, GI Tract [8]: 8.30% | ^238Pu percent tissue reduction, Kidney [8]: 29.85% | ^238Pu percent tissue reduction, Liver [8]: 24.79% | ^238Pu percent tissue reduction, Soft Tissue [8]: 30.25% | ^238Pu percent tissue reduction, Total Body [8]: 41.28% | ^238Pu percent tissue reduction, Total Bone [8]: 51.23% | ^238Pu retention, GI Tract, Avg [9]: 0.83 percent recovered dose | ^238Pu retention, Kidney, Avg [9]: 0.14 percent recovered dose | ^238Pu retention, Liver, Avg [9]: 5.60 percent recovered dose | ^238Pu retention, Soft Tissue, Avg [9]: 2.01 percent recovered dose | ^238Pu retention, Total Body, Avg [9]: 26.78 percent recovered dose | ^238Pu retention, Total Bone, Avg [9]: 18.20 percent recovered dose | ^238Pu percent tissue reduction, GI Tract [9]: 39.39% | ^238Pu percent tissue reduction, Kidney [9]: 48.77% | ^238Pu percent tissue reduction, Liver [9]: 58.17% | ^238Pu percent tissue reduction, Soft Tissue [9]: 24.63% | ^238Pu percent tissue reduction, Total Body [9]: 45.22% | ^238Pu percent tissue reduction, Total Bone [9]: 41.64% | ^238Pu excretion, Total Excretion, Avg [10]: 73.22 percent recovered dose | ^238Pu excretion, Total Feces, Avg [10]: 34.70 percent recovered dose | ^238Pu excretion, Total Urine, Avg [10]: 38.52 percent recovered dose | ^238Pu percent increase in excretion, Total Excretion [10]: 143.25% | ^238Pu percent increase in excretion, Total Feces [10]: 150.20% | ^238Pu percent increase in excretion, Total Urine [10]: 137.53%
